The source of these data is patent US11643417B2, “Tetrahydrobenzofurodiazepinone compound and pharmaceutical use thereof” (priority 2020, dated 2023).

This assay deals with human Pim-1 (Homo sapiens (Human), UniProt P11309). Nature of the assay: biochemical. Format: biochemical. The following applies: Ki converted from IC50, purified human Pim-1, Pim2tide substrate, ADP-Glo. As for the experimental part: The human Pim-1 inhibitory activity of the test compounds was evaluated as follows.
(1) Purification of Human Pim-1
DNA fragment in which a His-Tag sequence and a translation termination sequence are added to the 3′-end of human Pim-1 translation sequence was amplified by PCR (Polymerase Chain Reaction), using human Pim-1 gene-inserted plasmid DNA (Kazusa DNA Laboratory, model number FXC11400) as a template. The amplified DNA fragment was fused with pGEx-6P-1 (GE Healthcare Japan, model number 27-4597-1) digested with BamHI and EcoRI using In-Fusion HD Cloning Kit (Takara Bio, model number 639649). […] The base sequence of Pim-1 cloned into vector was determined by Dye Terminator method using BigDye Terminator v3.1 Cycle Sequencing Kit (Applied Biosystems, model number 4337456). […] Escherichia coli BL21 (DE3) (Merck KGaA, model number 69449-4) transformed with human Pim-1-expressed plasmid DNA was cultured in 2×YT medium (Becton Dickinson, model number 2404020) at 30° C., until the optical concentration at 620 nm (OD620) reached 0.6, and then cultured overnight at 20° C. in the presence of 0.5 mmol/L isopropyl b-D-1-thiogalactopyranoside. After the completion of so the culture, the cells were collected and suspended in Homogenate Buffer (50 mmol/L Tris-HCl (pH 7.5), 500 mmol/L NaCl, 1% Tween20, complete, EDTA-free (Roche, model number 1873580)), and the suspended cells were lysed by passing through a microfluidizer M-110H (Mizuho Kogyo Co., Ltd.). The lysate was centrifuged at 10,100×g for 10 minutes, 4° C., and the supernatant was filtered through MILLEX-HV Filter (0.45 μm) (Millipore, SLHV033RS) to remove the cell residues. The filtrate was loaded onto complete His-Tag Purification Resin (Roche Diagnostics, model number 05 893 682 0.01). The column was washed with Equilibration Buffer-1 (50 mmol/L Tris-HCl (pH 7.5), 500 mmol/L NaCl, 1% Tween 20) containing 5 mmol/L Imidazole, followed by Equilibration Buffer-1 containing 50 mmol/L Imidazole, the human Pim-1 to which GST-Tag derived from pGEx-6P-1 was eluted with Equilibration Buffer-1 containing 150 mmol/L imidazole. […] The protease reaction was carried out by stirring overnight at 4° C., and the human Pim-1 in which the GST-Tag sequence was cleaved was eluted. The eluate was loaded onto a gel filtration column (Superdex-200 […] (GE Healthcare, model number 17-5175-01)) equilibrated with Equilibration Buffer-3 (50 mmol/L Tris-HCl (pH 7.5), 500 mmol/L NaCl, 0.05% Tween20, 0.5 mmol/L EDTA, 2 mmol/L DTT, 10% Glycerol), and eluted. The eluate was used as a human Pim-1 purified fraction.
The protein concentration of the human Pim-1 purified fraction was measured with Pierce 660 nm Protein Assay Reagent (Thermo Fisher Scientific, model number 22660). The purified fraction was rapidly frozen in liquid nitrogen, and then stored at −80° C. The His-Tag-added human Pim-1 was detected by Western blotting using a mouse anti-His monoclonal antibody (WAKO, model number 011-23091).
(2) Evaluation of Human Pim-1 Inhibitory Activity
The calculation of the Pim-1 inhibitory activity of the compound was performed using the following solution according to the protocol attached to ADP-Glo Kinase Assay (cat. V9102, Promega). The purified enzyme of human Pim-1 described above was used.
(i) Preparation of Solution
The kinase buffer solution (50 mmol/L HEPES (pH 7.5), 5 mmol/L MgCl2, 1 mmol/L DTT, 0.05% BSA) was prepared by dissolving HEPES (Jena Bioscience), MgCl2 (Sigma-Aldrich), DTT (Sigma-Aldrich) and BSA (Sigma-Aldrich) in purified water.
The ATP solution (288 μmol/L) was prepared by dissolving 100 mmol/L ATP (Promega) in the kinase buffer solution.
A general note: ADP-Glo turns the ADP formed in a reaction into a luminescent signal.

Where two headings read alike, the source gives them in different places.

Chain of human Pim-1 (P11309 whole entry): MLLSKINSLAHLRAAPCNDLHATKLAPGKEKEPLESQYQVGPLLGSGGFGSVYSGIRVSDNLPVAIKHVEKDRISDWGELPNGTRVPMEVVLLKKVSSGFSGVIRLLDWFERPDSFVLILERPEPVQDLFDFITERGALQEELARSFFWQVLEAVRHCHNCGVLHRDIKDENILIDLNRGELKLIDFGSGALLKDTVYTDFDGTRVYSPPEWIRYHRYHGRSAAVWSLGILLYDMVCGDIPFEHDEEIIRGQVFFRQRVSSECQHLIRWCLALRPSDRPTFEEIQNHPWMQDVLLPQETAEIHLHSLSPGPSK

In the case of `COC[C@]1(OC)CC[C@@H](CCN2CCNC(=O)c3oc4ccc(C(F)(F)F)cc4c32)CC1` [Example 2-04], for the setting “read-out: hPim1 Ki”, the Ki – broadly, a dissociation constant, usually derived from enzyme kinetics or from competition with a known ligand – worked out at 1.25 nM.

Turning to `COC[C@]1(OC)CC[C@@H](CCN2CCN(C)C(=O)c3oc4ccc(C(F)(F)F)cc4c32)CC1` [Example 2-05], the Ki (read-out: hPim1 Ki) stood at 13.2 nM.

Turning to `C[C@H]1CN(CC[C@H]2CC[C@](O)(CO)CC2)c2c(oc3ccc(C(F)(F)F)cc23)C(=O)N1` [Example 2-06], the Ki (read-out: hPim1 Ki) is 0.074 nM.

As for `C[C@@H]1CN(CC[C@H]2CC[C@](O)(CO)CC2)c2c(oc3ccc(C(F)(F)F)cc23)C(=O)N1` [Example 2-07], the Ki (read-out: hPim1 Ki) turned out to be 0.136 nM.

For the molecule `N#CC1CCOC(CCN2CCNC(=O)c3oc4ccc(C(F)(F)F)cc4c32)C1` (centres unmarked) [Example 2], the Ki (read-out: hPim1 Ki) is 1.12 nM.

With `CC1COC(CCN2CCNC(=O)c3oc4ccc(C(F)(F)F)cc4c32)CC1O` (centres unmarked) [Example 3], for the setting “read-out: hPim1 Ki”, the Ki turned out to be 0.606 nM.

On to `O=C1NCCN(CCC2CC(O)(CO)CCO2)c2c1oc1ccc(C(F)(F)F)cc21` (centres unmarked) [Example 4], for which the Ki (read-out: hPim1 Ki) was 0.442 nM.

As to `O=C1NCCN(CCC2CCC(CO)CCO2)c2c1oc1ccc(C(F)(F)F)cc21` (centres unmarked) [Example 9], the Ki (read-out: hPim1 Ki) turned out to be 0.481 nM.

Consider `O=C1NCCN(CC(F)(F)C2CC(O)(CO)CCO2)c2c1oc1ccc(C(F)(F)F)cc21` (centres unmarked) [Example 13], for which the Ki (read-out: hPim1 Ki) came out at 0.021 nM.

On to `O=C1NCCN(CC2(F)COC2)c2c1oc1ccc(C(F)(F)F)cc21` [Example 16], for which, under “read-out: hPim1 Ki”, the Ki stood at 10.9 nM.

With `COC(C1CC(O)C1)C1(CN2CCNC(=O)c3oc4ccc(C(F)(F)F)cc4c32)CC1` (centres unmarked) [Example 17], the Ki (read-out: hPim1 Ki) came out at 0.234 nM.

With `O=C1NCCN(CC(F)(F)C2CC(O)(C(F)(F)F)CCO2)c2c1oc1ccc(C(F)(F)F)cc21` (centres unmarked) [Example 19], where the note is “read-out: hPim1 Ki”, the Ki amounted to 0.101 nM.

For `CN1CCN(CC(F)(F)C2CC(O)CCO2)c2c(oc3ccc(C(F)(F)F)cc23)C1=O` (centres unmarked) [Example 20], the Ki (read-out: hPim1 Ki) was 0.38 nM.

For the molecule `CN1CCN(CC(F)(F)C2CC(O)(CO)CCO2)c2c(oc3ccc(C(F)(F)F)cc23)C1=O` (centres unmarked) [Example 21], under “read-out: hPim1 Ki”, the inhibition constant (Ki) came out at 0.33 nM.

For the molecule `O=C1NCCN(CCC2CCCCC2)c2c1oc1ccc(C(F)(F)F)cc21` [Example 25], the Ki (read-out: hPim1 Ki) turned out to be 11 nM.

`CC(C)(O)C1(O)CCOC(C(F)(F)CN2CCNC(=O)c3oc4ccc(C(F)(F)F)cc4c32)C1` (centres unmarked) [Example 30]: the inhibition constant Ki (read-out: hPim1 Ki) is 0.0577 nM.

With `N#CC1(CCO)CCOC(C(F)(F)CN2CCNC(=O)c3oc4ccc(C(F)(F)F)cc4c32)C1` (centres unmarked) [Example 33], the Ki (read-out: hPim1 Ki) was found to be 0.0793 nM.

As for `COC1(CO)CCOC(C(F)(F)CN2CCNC(=O)c3oc4ccc(C(F)(F)F)cc4c32)C1` (centres unmarked) [Example 34], the Ki (read-out: hPim1 Ki) is 0.0206 nM.

Regarding `O=C1NCCN(CCC2CC(O)CCC2(F)F)c2c1oc1ccc(C(F)(F)F)cc21` (centres unmarked) [Example 38], the Ki (read-out: hPim1 Ki) amounted to 0.189 nM.

On to `O=C1NCCN(CCC2CCCCO2)c2c1oc1ccc(C(F)(F)F)cc21` (centres unmarked) [Example 40], for which the Ki (read-out: hPim1 Ki) amounted to 0.969 nM.

For the molecule `O=C1NCCN(CC[C@H]2CO[C@H](CO)CO2)c2c1oc1ccc(C(F)(F)F)cc21` [Example 41], the Ki (read-out: hPim1 Ki) worked out at 0.933 nM.

With `O=C1NCCN(CC[C@H]2CO[C@@H](CO)CO2)c2c1oc1ccc(C(F)(F)F)cc21` [Example 42], the Ki (read-out: hPim1 Ki) stood at 0.567 nM.

With `C[C@H]1CO[C@@H](CCN2CCNC(=O)c3oc4ccc(C(F)(F)F)cc4c32)CO1` [Example 43], the inhibition constant (Ki) (read-out: hPim1 Ki) came out at 0.741 nM.

Take `C[C@@H]1CO[C@@H](CCN2CCNC(=O)c3oc4ccc(C(F)(F)F)cc4c32)CO1` [Example 44]: the Ki (read-out: hPim1 Ki) worked out at 1.04 nM.

As to `O=C1NCCN(CC(F)(F)C2CC(CO)CCO2)c2c1oc1ccc(C(F)(F)F)cc21` (centres unmarked) [Example 47], the Ki (read-out: hPim1 Ki) came out at 0.0246 nM.

`CC(C)(O)C1CCOC(C(F)(F)CN2CCNC(=O)c3oc4ccc(C(F)(F)F)cc4c32)C1` (centres unmarked) [Example 49]: under “read-out: hPim1 Ki”, the Ki was found to be 0.0389 nM.

On to `O=C1NCCN(CC(F)(F)C2CC(OC(F)F)CCO2)c2c1oc1ccc(C(F)(F)F)cc21` (centres unmarked) [Example 54], for which, under “read-out: hPim1 Ki”, the Ki was 0.133 nM.

`CC1(O)CCOC(C(F)(F)CN2CCNC(=O)c3oc4ccc(C(F)(F)F)cc4c32)C1` (centres unmarked) [Example 58, 1-(2,2-difluoro-2-(4-hydroxy-4-methyltetrahydro-2H-pyran-2-yl)ethyl)-9-(trifluoromethyl)-1,2,3,4-tetrahydro-5H-benzofuro[3,2-e][1,4]diazepin-5-one]: the inhibition constant Ki (read-out: hPim1 Ki) is 0.0167 nM.

For the molecule `CC1(O)CCOC(C(F)(F)CN2CCNC(=O)c3oc4ccc(C(F)(F)F)cc4c32)C1` (centres unmarked) [Example 59, 1-(2,2-difluoro-2-(4-hydroxy-4-methyltetrahydro-2H-pyran-2-yl)ethyl)-9-(trifluoromethyl)-1,2,3,4-tetrahydro-5H-benzofuro[3,2-e][1,4]diazepin-5-one], the Ki (read-out: hPim1 Ki) worked out at 0.107 nM.

Where the note is “hPim1 Ki (nM)”, `O=C1NCCN(CCC2CCC(O)CC2)c2c1oc1ccc(C(F)(F)F)cc21` (centres unmarked) [Example 60] returned a Ki of 0.273 nM.

Turning to `O=C1NCCN(CC(F)(F)C2CC(O)CCC2(F)F)c2c1oc1ccc(C(F)(F)F)cc21` (centres unmarked) [Example 62], the Ki (read-out: hPim1 Ki) worked out at 0.0461 nM.

For `C[C@H]1CO[C@H](CCN2CCNC(=O)c3oc4ccc(C(F)(F)F)cc4c32)CO1` [Example 63], the Ki (read-out: hPim1 Ki) is 0.452 nM.

With `C[C@@H]1CO[C@H](CCN2CCNC(=O)c3oc4ccc(C(F)(F)F)cc4c32)CO1` [Example 64], the Ki (read-out: hPim1 Ki) worked out at 0.263 nM.

Consider `O=C1NCCN(CC(F)(F)C2CCOCC2)c2c1oc1ccc(C(F)(F)F)cc21` [Example 65], for which, for the setting “read-out: hPim1 Ki”, the inhibition constant (Ki) was determined as 0.12 nM.

Regarding `CC1(O)CCOC(C(F)(F)CN2CCNC(=O)c3oc4ccc(C(F)(F)F)cc4c32)C1` (centres unmarked) [Example 66, 1-(2,2-difluoro-2-(4-hydroxy-4-methyltetrahydro-2H-pyran-2-yl)ethyl)-9-(trifluoromethyl)-1,2,3,4-tetrahydro-5H-benzofuro[3,2-e][1,4]diazepin-5-one], under “read-out: hPim1 Ki”, the Ki was found to be 0.0283 nM.

For the molecule `CC1(O)CCOC(C(F)(F)CN2CCNC(=O)c3oc4ccc(C(F)(F)F)cc4c32)C1` (centres unmarked) [Example 67, 1-(2,2-difluoro-2-(4-hydroxy-4-methyltetrahydro-2H-pyran-2-yl)ethyl)-9-(trifluoromethyl)-1,2,3,4-tetrahydro-5H-benzofuro[3,2-e][1,4]diazepin-5-one], the Ki (read-out: hPim1 Ki) was 0.242 nM.

For `O=C(OC[C@@H]1CO[C@H](CCN2CCNC(=O)c3oc4ccc(C(F)(F)F)cc4c32)CO1)c1ccccc1` [Example 69], the Ki (read-out: hPim1 Ki) was 18.5 nM.

In the case of `CC1(C)OCC(C(F)(F)CN2CCNC(=O)c3oc4ccc(C(F)(F)F)cc4c32)CO1` [Example 71], the Ki (read-out: hPim1 Ki) was found to be 1.3 nM.

`O=C1NCCN(CC[C@@H]2CO[C@H](CO)CO2)c2c1oc1ccc(C(F)(F)F)cc21` [Example 72]: for the setting “read-out: hPim1 Ki”, the Ki was 2.29 nM.

`O=C(OC[C@H]1CO[C@H](CCN2CCNC(=O)c3oc4ccc(C(F)(F)F)cc4c32)CO1)c1ccccc1` [Example 73]: the Ki (read-out: hPim1 Ki) was 4.74 nM.

On to `O=C1NCCN(CC[C@@H]2CO[C@@H](CO)CO2)c2c1oc1ccc(C(F)(F)F)cc21` [Example 74], for which the Ki (read-out: hPim1 Ki) came to 0.738 nM.

Take `O=C1CCC(CCN2CCNC(=O)c3oc4ccc(C(F)(F)F)cc4c32)CC1` [Example 75]: the inhibition constant (Ki) (read-out: hPim1 Ki) came out at 1.62 nM.

Consider `O=C1NCCN(CC(F)(F)[C@@H]2CO[C@@H](CO)CO2)c2c1oc1ccc(C(F)(F)F)cc21` [Example 77, 1-(2,2-difluoro-2-((2S,5S)-5-(hydroxymethyl)-1,4-dioxan-2-yl)ethyl)-9-(trifluoromethyl)-1,2,3,4-tetrahydro-5H-benzofuro[3,2-e][1,4]diazepin-5-one], for which the Ki (read-out: hPim1 Ki) was determined as 0.0438 nM.

For `O=C1NCCN(CC(F)(F)[C@@H]2CO[C@H](CO)CO2)c2c1oc1ccc(C(F)(F)F)cc21` [Example 78], the Ki (read-out: hPim1 Ki) came to 0.227 nM.
